{"source": "patent US20100105663A1", "about": "“2-(HETEROARYL) ALKYL INDAZOLE 6-PHENYL AND THIENYL METHYL AMIDE AS THROMBIN INHIBITORS” (BAYER HEALTHCARE AG, priority 2006, published 2010)", "molecular_target": "human thrombin (Homo sapiens, UniProt P00734)", "assay": "Measurement of thrombin inhibition (in vitro enzyme assay)", "format": "biochemical", "conditions": "human thrombin 0.06 nmol/l, 15 min incubation at 22° C., pH 7.4; substrate 5 μmol/l Boc-Asp(OBzl)-Pro-Arg-AMC, 30 min, fluorescence", "procedure": "For determination of the thrombin inhibition of the aforementioned substances, a biochemical test system is used, in which the conversion of a thrombin substrate is used for determining the enzymatic activity of human thrombin. In this, thrombin cleaves aminomethylcoumarin from the peptic substrate, and this is measured by fluorescence. The determinations are carried out in microtitre plates.\nThe test substances are dissolved at different concentrations in dimethylsulphoxide and incubated for 15 min with human thrombin (0.06 nmol/l dissolved in 50 mmol/l Tris-buffer [C,C,C-Tris(hydroxymethyl)-aminomethane], 100 mmol/l NaCl, 0.1% BSA [bovine serum albumin], pH 7.4) at 22° C. Then the substrate (5 μmol/l Boc-Asp(OBzl)-Pro-Arg-AMC from the company Bachem) is added. After incubation for 30 min the sample is excited at a wavelength of 360 nm and the emission at 460 nm is measured. The measured emissions of the test preparations with test substance are compared with the control preparations without test substance (dimethylsulphoxide only, instead of test substance in dimethylsulphoxide) and IC50 values are calculated from the concentration-effect relations.", "data": [{"compound": "CN(C)C(Cn1cc2ccc(C(=O)NCc3cccc(Cl)c3)cc2n1)c1ccccc1Cl", "note": "(stereo not drawn) [Example 49, N-(3-Chlorobenzyl)-2-[2-(2-chlorophenyl)-2-(dimethylamino)ethyl]-2H-indazole-6-carboxamide]", "values": [{"measurement": "IC50", "result": 26, "unit": "nM"}]}, {"compound": "O=C(NCc1cccc(Cl)c1)c1ccc2cn(CCN3CCOC3=O)nc2c1", "note": "[Example 4, N-(3-Chlorobenzyl)-2-[2-(2-oxo-1,3-oxazolidin-3-yl)ethyl]-2H-indazole-6-carboxamide]", "values": [{"measurement": "IC50", "result": 216, "unit": "nM"}]}, {"compound": "Cc1nn(CCn2cc3ccc(C(=O)NCc4cccc(Cl)c4)cc3n2)c(C)c1Cl", "note": "[Example 26, N-(3-Chlorobenzyl)-2-[2-(4-chloro-3,5-dimethyl-1H-pyrazol-1-yl)ethyl]-2H-indazole-6-carboxamide]", "values": [{"measurement": "IC50", "result": 110, "unit": "nM"}]}]}
